According to patent US20240398771A1, “TREATMENT OF SCLERODERMA AND RAYNAUD'S SYNDROME” (Aisa Pharma, Inc., priority 2023, published 2024):

How the values were obtained:
Type in all cases: in vivo, human
participants with SSc-RP [1] = experiment: SHAQ Visual Analog Scale - Pain; settings: Tadalafil 5 mg; Modified ITT, Part A
Description: (§1) Results: Patients in the study were administered the Scleroderma Health Assessment Questionnaire (SHAQ) at the time of study entry and during clinic visits following the treatment period. The study is a two-part, parallel arm design, prospective, double-blind, randomized study conducted in Australia (Flinders Medical Center). 27 patients were randomized into the first phase of the study, following which a DSMB meeting was held, which reviewed data on the primary study endpoint and key Raynaud's secondary endpoints. Data on the SHAQ was not available for the DSMB to review. The mITT population, in which any data was available post treatment was 24 patients was the analysis population for this first part of the study. The second part (i.e., part B) of the study will randomize 36 patients in a double blind, randomized, prospective, placebo controlled, crossover study. In the first part (i.e., Part A) of the study for which data is presented, patients were randomized into 6 groups, cilnidipine at two doses (10 and 20 mg) alone and in combination with tadalafil 5 mg, tadalafil 5 mg alone, and placebo. […] The DSMB recommended that the study proceed into its double blind prospective cross overpowered second phase and compare cilnidipine 20 mg alone to placebo. […] Cilnidipine treatment may reduce patient-reported SSc disease disability compared to placebo • b. Cilnidipine treatment may reduce patient-reported SSc disease alternative disability compared to placebo • c. Cilnidipine treatment may reduce patient-reported SSc disease pain* compared to placebo • d. Cilnidipine treatment may reduce patient-reported SSc disease severity compared to placebo • e. Cilnidipine treatment may reduce patient-reported SSc disease skin ulcer severity rating compared to placebo • f Cilnidipine treatment may reduce patient-reported SSc disease breathing difficulty compared to placebo • g. […] SSc disease pain comprises not only pain from Raynaud's but joint pain, headache, odynophagia, back pain, pain from skin ulceration, and neuropathic pain). Table E includes results of the Scleroderma Health Assessment Questionnaire.
Pain on the SHAQ outcome measure on the first line in table F is a composite of all pain experienced in patients with SSc, comprising joint pain, back pain, headache, odynophagia, skin ulcer related discomfort, Raynaud's, and neuropathic pain. Aisa Pharma believes, based on the biologic attributes and actions of cilnidipine that differ from most dihydropyridine calcium channel antagonists that cilnidipine might have direct analgesic effects in certain pain conditions and in fact has been designated to receive evaluation through the NIH-NINDS Preclinical Pain Screening Platform Program to investigate the drug in multiple in vitro and in vivo preclinical models of pain that are validated and predictive of effects in man.

participants with SSc-RP [2] = experiment: Average duration of weekly RP attacks, all attacks (minutes)
Excerpt: The relevant metrics measured by this tool daily are: • Study medication • SSc-RP symptoms (Reporting an attack including duration of attack) • Severity of the attack considering all symptoms of the attack e.g. tingling, numbness, pain, color changes (VAS 0-10 cm scale) • Participant's location at the time of the attack (inside home/outside home) • Selecting symptoms experienced during the attack (tingling, numbness, pain, color changes, other) • Pain rating during the attack (11-point Likert scale) • The RCS based on how much difficulty participants had with Raynaud's today, how many attacks the participant had, and how long they lasted. Participants will also be asked to consider how much pain, numbness, or other symptoms the Raynaud's caused in fingers (including painful sores), and how much the Raynaud's alone affected the use of hands today (VAS 0-10 cm scale).
The absolute change in average duration of weekly RP attacks from baseline to the end of each dosing period was and will be a secondary outcome variable. The sponsor-developed participant-informed diary was and will be used to record data. Average duration of weekly RP attacks is defined as the total duration of RP attacks divided by total number of RP attacks within the last 7 days of each dosing period. Total duration of RP attacks during the last 7 days of screening period divided by the total number of RP attacks will be used as baseline for the analysis of all periods. The variable will be calculated similar to frequency data as before.

participants with SSc-RP [3] = experiment: SHAQ Visual Analog Scale - Intestinal Problems; settings: Tadalafil 5 mg; Modified ITT, Part A
Description: as §1

participants with SSc-RP [4] = experiment: SHAQ Visual Analog Scale - Finger Ulcers; set-up: Finger Ulcers, Baseline, Mean / Finger Ulcers, Baseline, Median / Finger Ulcers, Change from Baseline, Mean / Finger Ulcers, Change from Baseline, Median: scale not given here; settings: Tadalafil 5 mg; Modified ITT, Part A
Description: as §1

[5] = Excluding Outliers, ITT Population - Part A (Table B-6), last 7 days of dosing period
[6] = Excluding Outliers, ITT Population - Part A (Table B-6), last 7 days of screening period
[7] = ITT Population - Part A (Table B-5), last 7 days of dosing period
[8] = ITT Population - Part A (Table B-5), last 7 days of screening period

CN1CC(=O)N2[C@H](c3ccc4c(c3)OCO4)c3[nH]c4ccccc4c3C[C@@H]2C1=O [Tadalafil]
Visual Analog Scale-Pain, Baseline, Mean (participants with SSc-RP [1]): 3.167 | Visual Analog Scale-Pain, Baseline, Median (participants with SSc-RP [1]): 2.900 | Visual Analog Scale-Pain, Change from Baseline, Mean (participants with SSc-RP [1]): −0.300 | Visual Analog Scale-Pain, Change from Baseline, Median (participants with SSc-RP [1]): −0.100 | Visual Analog Scale-Pain, In Clinic Visit (Day 12), Mean (participants with SSc-RP [1]): 2.700 | Visual Analog Scale-Pain, In Clinic Visit (Day 12), Median (participants with SSc-RP [1]): 2.150 | Visual Analog Scale-Pain, Percent Change from Baseline, Mean (participants with SSc-RP [1]): −14.24% | Visual Analog Scale-Pain, Percent Change from Baseline, Median (participants with SSc-RP [1]): −4.55% | Average Duration of weekly RP attacks (All Attacks), Max (participants with SSc-RP [2]; [5]): 5.9, 5.9 minutes | Average Duration of weekly RP attacks (All Attacks), Min (participants with SSc-RP [2]; [5]): 5.9, 5.9 minutes | Average Duration of weekly RP attacks (All Attacks), Q1 (participants with SSc-RP [2]; [5]): 5.95, 5.95 minutes | Average duration of weekly RP attacks (All Attacks), Change from Baseline, Max (participants with SSc-RP [2]; [5]): −5.0, −5.0 minutes | Average duration of weekly RP attacks (All Attacks), Change from Baseline, Min (participants with SSc-RP [2]; [5]): −5.0, −5.0 minutes | Average duration of weekly RP attacks (All Attacks), Percent Change from Baseline, Max (participants with SSc-RP [2]; [5]): −45.6, −45.6% | Average duration of weekly RP attacks (All Attacks), Percent Change from Baseline, Min (participants with SSc-RP [2]; [5]): −45.6, −45.6% | Average duration of weekly RP attacks (All Attacks), Baseline, Max (participants with SSc-RP [2]; [6]): 10.9, 10.9 minutes | Average duration of weekly RP attacks (All Attacks), Baseline, Min (participants with SSc-RP [2]; [6]): 10.9, 10.9 minutes | Average duration of weekly RP attacks (All Attacks), Baseline, Q1 (participants with SSc-RP [2]; [6]): 10.92, 10.92 minutes | Average duration of weekly RP attacks (All Attacks), Baseline, Q3 (participants with SSc-RP [2]; [6]): 10.92, 10.92 minutes | Average Duration of weekly RP attacks (All Attacks) (participants with SSc-RP [2]; [7]): 5.9 min | Average Duration of weekly RP attacks (All Attacks), Max (participants with SSc-RP [2]; [7]): 818.6 min | Average Duration of weekly RP attacks (All Attacks), Q1 (participants with SSc-RP [2]; [7]): 5.95 min | Average Duration of weekly RP attacks (All Attacks), Q3 (participants with SSc-RP [2]; [7]): 818.57 min | Average duration of weekly RP attacks (All Attacks), Change from Baseline (participants with SSc-RP [2]; [7]): -5.0 min | Average duration of weekly RP attacks (All Attacks), Change from Baseline, Max (participants with SSc-RP [2]; [7]): 188.6 min | Average duration of weekly RP attacks (All Attacks), Change from Baseline, Mean (participants with SSc-RP [2]; [7]): 91.80 min | Average duration of weekly RP attacks (All Attacks), Change from Baseline, Median (participants with SSc-RP [2]; [7]): 91.80 min | Average duration of weekly RP attacks (All Attacks), Change from Baseline, Q3 (participants with SSc-RP [2]; [7]): 188.57 min | Average duration of weekly RP attacks (All Attacks), Percent Change from Baseline, Max (participants with SSc-RP [2]; [7]): 29.9% | Average duration of weekly RP attacks (All Attacks), Percent Change from Baseline, Mean (participants with SSc-RP [2]; [7]): −7.81% | Average duration of weekly RP attacks (All Attacks), Percent Change from Baseline, Median (participants with SSc-RP [2]; [7]): −7.81% | Average duration of weekly RP attacks (All Attacks), Percent Change from Baseline, Min (participants with SSc-RP [2]; [7]): −45.6% | Average duration of weekly RP attacks (All Attacks), Percent Change from Baseline, Q3 (participants with SSc-RP [2]; [7]): 29.93% | Average duration of weekly RP attacks (All Attacks), Baseline (participants with SSc-RP [2]; [8]): 10.9 min | Average duration of weekly RP attacks (All Attacks), Baseline, Max (participants with SSc-RP [2]; [8]): 630.0 min | Average duration of weekly RP attacks (All Attacks), Baseline, Q1 (participants with SSc-RP [2]; [8]): 10.92 min | Average duration of weekly RP attacks (All Attacks), Baseline, Q3 (participants with SSc-RP [2]; [8]): 630.00 min | Visual Analog Scale-Intestinal Problems, Baseline, Mean (participants with SSc-RP [3]): 0.925 | Visual Analog Scale-Intestinal Problems, Baseline, Median (participants with SSc-RP [3]): 0.950 | Visual Analog Scale-Intestinal Problems, Change from Baseline, Mean (participants with SSc-RP [3]): −0.250 | Visual Analog Scale-Intestinal Problems, Change from Baseline, Median (participants with SSc-RP [3]): −0.150 | Visual Analog Scale-Intestinal Problems, In Clinic Visit (Day 12), Mean (participants with SSc-RP [3]): 1.175 | Visual Analog Scale-Intestinal Problems, In Clinic Visit (Day 12), Median (participants with SSc-RP [3]): 0.100 | Visual Analog Scale-Intestinal Problems, Percent Change from Baseline, Mean (participants with SSc-RP [3]): −2.55% | Visual Analog Scale-Intestinal Problems, Percent Change from Baseline, Median (participants with SSc-RP [3]): −88.89% | Finger Ulcers, Baseline, Mean (participants with SSc-RP [4]): 2.125 | Finger Ulcers, Baseline, Median (participants with SSc-RP [4]): 0.050 | Finger Ulcers, Change from Baseline, Mean (participants with SSc-RP [4]): −0.967 | Finger Ulcers, Change from Baseline, Median (participants with SSc-RP [4]): −0.100 | Finger Ulcers, In Clinic Visit (Day 12), Mean (participants with SSc-RP [4]): 1.867 | Finger Ulcers, In Clinic Visit (Day 12), Median (participants with SSc-RP [4]): 0.000 | Finger Ulcers, Percent Change from Baseline, Mean (participants with SSc-RP [4]): −66.67% | Finger Ulcers, Percent Change from Baseline, Median (participants with SSc-RP [4]): −66.67%
